Measured values published in patent US20060110456A1, “Method for biocidal and/or biostatic treatment and compositions therefor” (NATIONAL UNIVERSITY OF SINGAPORE, priority 2004, published 2006).
Where a name gives a salt, the structure may show the parent alone.

Assays:
[1] = test system: hard fouling (barnacles, serpulids, spirorbids); assay: Field testing of coated rods; assay type: in vivo; set-up: Total hard fouling, difference in mean cover (%), drug vs control / Barnacles, difference in mean cover (%), drug vs control: tested at 25 µg/ml of coating; Serpulids, difference in mean cover (%), drug vs control: tested at 25 µg/ml of coating mix
Description: Fouling on rods occurs more rapidly than on flat panels, enabling rapid assessment of the performance of coatings.
6 mm diameter glass rods were cut to 150 mm length and prepared prior to coating by baking in a furnace at 150° C. for 24 hours and then cooling in a dessicator.
All pharmaceuticals were obtained in commercially available form. All tablets were reduced to fine powder with a mortar and pestle, and capsules were opened to extract the contents. The amount of drug powder required to attain the desired concentrations for all tests was calculated from product dosage information and then measured by weight on a high-resolution electronic balance. This was added to the coating and mixed thoroughly prior to application to obtain the concentration of 25 ug active ingredient per ml of coating mix.
The commercial antifouling product used to benchmark field experiments was VC Offshore with Teflon® manufactured by International Coatings.
For our experiments, a reduced copper coating (“VC50”) was prepared by mixing approximately 20 g of #YBA779 into 100 ml of #YBA707. The prepared coating was then allowed to stand so that bubbles from the mixing process dissipated. 15 ml centrifuge tubes were filled with 10 mls of prepared coating. Prepared glass rods were then immersed in the coating to a height of 100 mm and then suspended on a frame to air dry until coating cured.
Five replicate rods were tested for every experimental treatment, including controls. Two sets of controls were used, an uncoated blank control and a VC50 control without pharmaceutical additives. Rod were randomly arrayed on plastic vexar mesh attached to PVC frames and suspended at a depth of 10 cm from the water surface. […] Rods were examined visually weekly for the duration of testing, which typically lasts between 6 to 10 weeks. All fouling was scored as percentage cover of each category within a 6 mm×50 mm transect on each rod.

[2] = test system: marine bacteria (26 strains); assay: Disk inhibition assay; assay type: cell-based, marine bacteria isolated from Singapore fouling communities
Method in brief: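 Tablets or capsule powders suspended in sterile water at 2 mg ml^−1 and loaded onto disks; antibiotic discs (Amp, Ery, Str, Tet) served as comparison. Disks placed on swabbed lawns on Marine Agar, incubated overnight in the dark at 30° C. Zone of clearing diameter measured by calipers; three replicates on three occasions.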

[3] = crude rank, best (1) to worst (8)
[4] = drug + VC50 rods vs VC50 control
[5] = drug + VC50 rods vs uncoated blank control
[6] = rods coated with drug + VC50, field test

How did the “Performance against serpulid polychaetes” value ([1]; coated rods, in words) turn out when `CN[C@H]1CC[C@@H](c2ccc(Cl)c(Cl)c2)c2ccccc21.Cl` [ZLT, sertraline hydrochloride] was run?
The value was “higher cover of serpulid and spirorbid polychaetes compared to VC50 alone”.

And the “Performance against spirorbid polychaetes” value ([1]; coated rods, in words)?
Its value is “higher cover of serpulid and spirorbid polychaetes compared to VC50 alone”.

What about the “Overall performance in field assay” value [1, 3] of the same molecule?
Its value is 8.

What about the “Barnacles, difference in mean cover (%), drug vs VC50” value [1, 4] of the same molecule?
Its value is −11.67%.

And the “Serpulids, difference in mean cover (%), drug vs VC50” value [1, 4]?
Its value is “+1.66%”.

And the “Spirorbids, difference in mean cover (%), drug vs VC50” value [1, 4]?
The value was “+6.67%”.

What about the “Total hard fouling, difference in mean cover (%), drug vs VC50” value [1, 4] of the same molecule?
The value was −3.33%.

And the “Barnacles, difference in mean cover (%), drug vs control” value [1, 5]?
Its value is −74.67%.

And the “Serpulids, difference in mean cover (%), drug vs control” value [1, 5]?
Its value is 0%.

What about the “Spirorbids, difference in mean cover (%), drug vs control” value [1, 5] of the same molecule?
The value was “+28.33%”.

And the “Total hard fouling, difference in mean cover (%), drug vs control” value [1, 5]?
Its value is −46.33%.

And the “Reduction of total hard fouling cover compared to VC50 alone” value ([1]; drug at 25 ug per ml of VC50 coating)?
The value was 3.3%.

What about the “Effect of addition of drug on antifouling performance of VC50 coating (total hard fouling)” value ([1]; drug at 25 ug per ml of VC50 coating, in words) of the same molecule?
Its value is “did not significantly improve the antifouling performance of VC50”.

And the “Barnacles Mean cover (%)” value [1, 6]?
The value was 18.33%.

And the “Serpulids Mean cover (%)” value [1, 6]?
The value was 3.33%.

What about the “Spirorbids Mean cover (%)” value [1, 6] of the same molecule?
Its value is 30%.

What about the “Total hard fouling Mean cover (%)” value ([1]; rods coated with drug + VC50, field test, percentage cover within 6 mm×50 mm transect) of the same molecule?
The value was 51.67%.

`CN1CCN(CCCN2c3ccccc3Sc3ccc(C(F)(F)F)cc32)CC1` [TFZ, Trifluoperazine hydrochloride] was tested. Which “Number of strains inhibited out of 26 strains” value ([2]; 25 μg per disc) did it give?
The value was 22.

What about the “Strains showing no inhibition (of 26)” value ([2]; 50 μg per disc) of the same molecule?
Its value is 2.

And the “Antibiotic activity against marine bacteria” value ([2]; 25 or 50 μg per disc, in words)?
The value was “strongest activity”.

What about the “Antibiotic activity against marine bacteria” value [2, 3] of the same molecule?
Its value is 3.

And the zone of inhibition at 25 µg/disc ([2]; strain 1 (Rhodovulum), 25 μg per disc)?
Its zone of inhibition at 25 µg/disc is less than 5 mm.

And the zone of inhibition at 50 µg/disc ([2]; strain 1 (Rhodovulum), 50 μg per disc)?
The zone of inhibition at 50 µg/disc was less than 5 mm.

What about the zone of inhibition at 25 µg/disc ([2]; strain 2 (Erythrobacter), 25 μg per disc) of the same molecule?
The zone of inhibition at 25 µg/disc was less than 5 mm.

What about the zone of inhibition at 50 µg/disc ([2]; strain 2 (Erythrobacter), 50 μg per disc) of the same molecule?
The zone of inhibition at 50 µg/disc was 10 to 19 mm.

What about the zone of inhibition at 25 µg/disc ([2]; strain 3 (Erythrobacter), 25 μg per disc) of the same molecule?
The zone of inhibition at 25 µg/disc was 10 to 19 mm.

And the zone of inhibition at 50 µg/disc ([2]; strain 3 (Erythrobacter), 50 μg per disc)?
The zone of inhibition at 50 µg/disc was 10 to 19 mm.

And the zone of inhibition at 25 µg/disc ([2]; strain 4 (Bacillus), 25 μg per disc)?
The zone of inhibition at 25 µg/disc was 10 to 19 mm.

And the zone of inhibition at 50 µg/disc ([2]; strain 4 (Bacillus), 50 μg per disc)?
The zone of inhibition at 50 µg/disc was 10 to 19 mm.

And the zone of inhibition at 25 µg/disc ([2]; strain 6 (Vibrio), 25 μg per disc)?
Its zone of inhibition at 25 µg/disc is 5 to 9 mm.

What about the zone of inhibition at 50 µg/disc ([2]; strain 6 (Vibrio), 50 μg per disc) of the same molecule?
The zone of inhibition at 50 µg/disc was 5 to 9 mm.

And the zone of inhibition at 25 µg/disc ([2]; strain 7 (Vibrio), 25 μg per disc)?
Its zone of inhibition at 25 µg/disc is less than 5 mm.

What about the zone of inhibition at 50 µg/disc ([2]; strain 7 (Vibrio), 50 μg per disc) of the same molecule?
Its zone of inhibition at 50 µg/disc is 5 to 9 mm.

And the zone of inhibition at 25 µg/disc ([2]; strain 8 (Bacillus), 25 μg per disc)?
Its zone of inhibition at 25 µg/disc is 5 to 9 mm.

What about the zone of inhibition at 50 µg/disc ([2]; strain 8 (Bacillus), 50 μg per disc) of the same molecule?
Its zone of inhibition at 50 µg/disc is 10 to 19 mm.

What about the zone of inhibition at 25 µg/disc ([2]; strain 9 (Bacillus), 25 μg per disc) of the same molecule?
The zone of inhibition at 25 µg/disc was 10 to 19 mm.

And the zone of inhibition at 50 µg/disc ([2]; strain 9 (Bacillus), 50 μg per disc)?
Its zone of inhibition at 50 µg/disc is 10 to 19 mm.

What about the zone of inhibition at 25 µg/disc ([2]; strain 10 (Halobacillus), 25 μg per disc) of the same molecule?
The zone of inhibition at 25 µg/disc was 10 to 19 mm.

What about the zone of inhibition at 50 µg/disc ([2]; strain 10 (Halobacillus), 50 μg per disc) of the same molecule?
Its zone of inhibition at 50 µg/disc is 10 to 19 mm.

And the zone of inhibition at 25 µg/disc ([2]; strain 11 (Pseudomonas), 25 μg per disc)?
Its zone of inhibition at 25 µg/disc is 10 to 19 mm.

What about the zone of inhibition at 50 µg/disc ([2]; strain 11 (Pseudomonas), 50 μg per disc) of the same molecule?
Its zone of inhibition at 50 µg/disc is 10 to 19 mm.

And the zone of inhibition at 25 µg/disc ([2]; strain 12 (Gordonia), 25 μg per disc)?
The zone of inhibition at 25 µg/disc was 10 to 19 mm.

And the zone of inhibition at 50 µg/disc ([2]; strain 12 (Gordonia), 50 μg per disc)?
The zone of inhibition at 50 µg/disc was 10 to 19 mm.

And the zone of inhibition at 25 µg/disc ([2]; strain 13 (Bacillus), 25 μg per disc)?
Its zone of inhibition at 25 µg/disc is 10 to 19 mm.

What about the zone of inhibition at 50 µg/disc ([2]; strain 13 (Bacillus), 50 μg per disc) of the same molecule?
The zone of inhibition at 50 µg/disc was 10 to 19 mm.

And the zone of inhibition at 25 µg/disc ([2]; strain 14 (Vibrio), 25 μg per disc)?
Its zone of inhibition at 25 µg/disc is less than 5 mm.

What about the zone of inhibition at 50 µg/disc ([2]; strain 14 (Vibrio), 50 μg per disc) of the same molecule?
The zone of inhibition at 50 µg/disc was less than 5 mm.

What about the zone of inhibition at 25 µg/disc ([2]; strain 16 (Pseudoalteromonas), 25 μg per disc) of the same molecule?
Its zone of inhibition at 25 µg/disc is 5 to 9 mm.

What about the zone of inhibition at 50 µg/disc ([2]; strain 16 (Pseudoalteromonas), 50 μg per disc) of the same molecule?
The zone of inhibition at 50 µg/disc was 10 to 19 mm.

And the zone of inhibition at 25 µg/disc ([2]; strain 17 (Gordonia), 25 μg per disc)?
The zone of inhibition at 25 µg/disc was 5 to 9 mm.

And the zone of inhibition at 50 µg/disc ([2]; strain 17 (Gordonia), 50 μg per disc)?
The zone of inhibition at 50 µg/disc was 10 to 19 mm.

What about the zone of inhibition at 25 µg/disc ([2]; strain 18 (Microbacterium), 25 μg per disc) of the same molecule?
The zone of inhibition at 25 µg/disc was 10 to 19 mm.

What about the zone of inhibition at 50 µg/disc ([2]; strain 18 (Microbacterium), 50 μg per disc) of the same molecule?
The zone of inhibition at 50 µg/disc was 10 to 19 mm.

And the zone of inhibition at 25 µg/disc ([2]; strain 19 (Erythrobacter), 25 μg per disc)?
The zone of inhibition at 25 µg/disc was 10 to 19 mm.

And the zone of inhibition at 50 µg/disc ([2]; strain 19 (Erythrobacter), 50 μg per disc)?
The zone of inhibition at 50 µg/disc was 10 to 19 mm.

What about the zone of inhibition at 25 µg/disc ([2]; strain 20, 25 μg per disc) of the same molecule?
Its zone of inhibition at 25 µg/disc is 10 to 19 mm.

And the zone of inhibition at 50 µg/disc ([2]; strain 20, 50 μg per disc)?
The zone of inhibition at 50 µg/disc was 20 to 29 mm.

And the zone of inhibition at 25 µg/disc ([2]; strain 21, 25 μg per disc)?
The zone of inhibition at 25 µg/disc was 5 to 9 mm.

What about the zone of inhibition at 50 µg/disc ([2]; strain 21, 50 μg per disc) of the same molecule?
Its zone of inhibition at 50 µg/disc is 5 to 9 mm.

And the zone of inhibition at 25 µg/disc ([2]; strain 22, 25 μg per disc)?
The zone of inhibition at 25 µg/disc was 10 to 19 mm.

And the zone of inhibition at 50 µg/disc ([2]; strain 22, 50 μg per disc)?
Its zone of inhibition at 50 µg/disc is 20 to 29 mm.

And the zone of inhibition at 25 µg/disc ([2]; strain 24, 25 μg per disc)?
The zone of inhibition at 25 µg/disc was 10 to 19 mm.

And the zone of inhibition at 50 µg/disc ([2]; strain 24, 50 μg per disc)?
Its zone of inhibition at 50 µg/disc is 10 to 19 mm.

And the zone of inhibition at 25 µg/disc ([2]; strain 26, 25 μg per disc)?
The zone of inhibition at 25 µg/disc was 5 to 9 mm.

And the zone of inhibition at 50 µg/disc ([2]; strain 26, 50 μg per disc)?
The zone of inhibition at 50 µg/disc was 10 to 19 mm.

And the zone of inhibition at 25 µg/disc ([2]; strain 27, 25 μg per disc)?
Its zone of inhibition at 25 µg/disc is 10 to 19 mm.

What about the zone of inhibition at 50 µg/disc ([2]; strain 27, 50 μg per disc) of the same molecule?
The zone of inhibition at 50 µg/disc was 10 to 19 mm.

What about the zone of inhibition at 25 µg/disc ([2]; strain 28, 25 μg per disc) of the same molecule?
Its zone of inhibition at 25 µg/disc is 5 to 9 mm.

What about the zone of inhibition at 50 µg/disc ([2]; strain 28, 50 μg per disc) of the same molecule?
The zone of inhibition at 50 µg/disc was 10 to 19 mm.

And the zone of inhibition at 25 µg/disc ([2]; strain 29, 25 μg per disc)?
The zone of inhibition at 25 µg/disc was 10 to 19 mm.

What about the zone of inhibition at 50 µg/disc ([2]; strain 29, 50 μg per disc) of the same molecule?
Its zone of inhibition at 50 µg/disc is 10 to 19 mm.

And the zone of inhibition at 25 µg/disc ([2]; strain 30, 25 μg per disc)?
Its zone of inhibition at 25 µg/disc is 10 to 19 mm.

And the zone of inhibition at 50 µg/disc ([2]; strain 30, 50 μg per disc)?
Its zone of inhibition at 50 µg/disc is 10 to 19 mm.
